Test results reported in patent US20240299595A1, “CANCER THERANOSTIC COMPOSITIONS COMPRISING BIGUANIDE COMPLEXES OF GROUP 7 TRANSITION METALS AND USES THEREOF” (BOARD OF REGENTS, THE UNIVERSITY OF TEXAS SYSTEM, priority 2021, published 2024).

How the values were obtained:
HeyA8 = test: MTT cytotoxicity, ovarian cancer cell line HeyA8; type: cell-based
Description: (§1) Finally, a comparison study of the cytotoxicity of Re-Phen and phenformin in a panel of ovarian cancer cell lines by MTT assay after a 72 hour incubation period was conducted. Ovarian cells were seeded at 5000 cells/well in 96-well plates overnight, and treated with Re-Phen or phenformin in different concentrations (from 4.57×10^−4 mM to 1.0 mM in 3-fold increase) at 37° C. for 72 hours. Cell viability was measured using the MTT assay. The absorption at 590 nm was measured at microplate reader (SpectraMax, Molecular Device, San Diego, CA) to quantify cell numbers. The proportion of cells was normalized to that of untreated cells and expressed as mean±standard error of the mean (SEM) (n=5-6). The resulting reduced viability with half-maximal inhibitory concentration (IC50) values of mM were calculated by a sigmoidal dose-response (variable slope) curve-fitting using GraphPad Prism software. The data are shown in FIG. 19A (Re-Phen) and FIG. 19B (phenformin). […] In fact, Re-Phen is shown to display >2,000-fold and >5,000-fold higher cytotoxicity against OVACAR-8 and SKOV3 (Table 2) human ovarian cancer cell lines, respectively.

BXPC-3 = test: MTT cytotoxicity, pancreatic cancer cell line BXPC-3; type: cell-based
Description: (§2) To determine cytotoxicity of Re-Phen and Phenformin, different cell lines were exposed to different concentrations of the compounds and their viabilities were followed over time. Pancreatic cells were seeded in 96-well plates (5000 cells/well) overnight, and treated with Re-Phen (FIG. 13A) or phenformin (FIG. 13B) in concentrations ranging from 4.57×10−4 mM to 1.0 mM at 37° C. for 72 h. Cell viability was measured using the MTT assay. The absorption at 590 nm was measured with a microplate reader (SpectraMax, Molecular Device, San Diego, CA) to quantify cell numbers. The proportion of cells was normalized to that of untreated cells and expressed as mean±standard error of the mean (SEM) (n=6). The half-maximal inhibitory concentration (IC50) values were calculated by a sigmoidal dose-response (variable slope) curve-fitting using GraphPad Prism software.

PDAC cells [1] = test: Glycolytic ratio, YSI metabolic analyzer; type: cell-based; conditions: 30 μM, 24 hours
Description: The glycolytic ratio was obtained using a YSI metabolic analyzer after treatments with phenformin (30 μM) or Re-Phen (30 μM) for 24 hours. Wells with culture media but without cells were used for baseline reading. Data are presented as mean±SD (n=3). *p<0.05; **p<0.01.
(§3) Both Re-Phen and phenformin altered the mitochondrial functions and metabolic state of PDAC cells. The fluorescent intensities for both monomeric forms (Ex/Em=490/525 nm) and J-aggregates (Ex/Em=540/590 nm) of JC-10 change upon mitochondrial membrane polarization. Thus, an increase in the ratio of fluorescence intensities measured at 525 nm (monomeric form) over 590 nm (aggregates) represents a decrease in mitochondrial membrane potential.

MiaPaca-2 PDAC cells = test: MTT cytotoxicity, pancreatic cancer cell line MiaPaca-2; type: cell-based; conditions: for IC50: MTT, 72 h
Description: as §2, with “Pancreatic cells were seeded in 96-well plates (5000 cells/well) overnight, and treated with Re-Phen (FIG. 13A) or phenformin (FIG. 13B) in concentrations ranging from 4.57×10−4 mM to 1.0 mM at 37° C. for 72 h.” left out

[2] = log P from octanol and PBS pH 7.4; type: physicochemical
PDAC cells [3] = test: JC-10 mitochondrial membrane potential assay; type: cell-based; conditions: JC-10 microplate assay kit
Description: The fluorescent intensities for J-aggregates (Ex/Em=540/590 nm) and monomeric forms (Ex/Em=490/525 nm) of JC-10 were measured with a microplate reader. Fluorescence intensity ratio measured at 525 nm/590 nm represents the change of mitochondrial membrane potential. Data are presented as mean±SD (n=4). *p<0.05; **p<0.01; ***p<0.001.
as §3

[4] = test system: orthotopic Kras* murine PDAC tumor; test: Antitumor efficacy, syngeneic Kras* orthotopic PDAC model; type: in vivo, C57BL/6 mice; conditions: 10 daily intraperitoneal injections, 50 mg/kg/injection
Description: FIG. 6A outlines an in vivo experiment assessing antitumor activity of Re-Phen against orthotopic Kras* murine PDAC tumor. Male C57BL/6 mice were inoculated in the pancreas with iKrasG12D murine tumor cells. Treatments were initiated on day 7 after tumor cells inoculation. Each mouse received 10 daily intraperitoneal injections of phenformin or Re-Phen at a dose of 50 mg/kg/injection (100 μL/mouse). Control mice received 50/50 (v/v) Cremorphor EL/absolute ethanol, further diluted at 1:4 (v/v) ratio with saline (100 μL/mouse) before injection.
For antitumor efficacy study, the syngeneic Kras* orthotopic PDAC model was used. Kras* PDAC cells established from transgenic mouse model of PDAC with inducible KrasG12D mutation were inoculated into the pancreas of 6-week-old female C57BL/6 mice (Taconic Biosciences, Rensselaer, NY). Treatments were initiated on day 7 after tumor cells inoculation when tumors were ˜5 mm in diameter. Each mouse received 10 daily intraperitoneal injections of phenformin or Re-Phen at a dose of 50 mg/kg/injection (100 μL/mouse) (FIG. 6A). Each drug was formulated in 50/50 (v/v) Cremorphor EL/absolute ethanol, which that was further diluted at 1:4 (v/v) ratio with saline before injection. Animals were weighted daily to record possible adverse effects. Animals were euthanized on day 16 after the last injection. Tumors were harvested and weighted, fixed in formalin, embedded in paraffin, and cut into 4-μm sections. Slides were immunohistochemically stained with the proliferation marker Ki67, counterstained with hematoxylin and visualized under a brightfield microscope at 100× or 200× magnification.

Kras* = test: MTT cytotoxicity, pancreatic cancer cell line Kras*; type: cell-based, murine; conditions: 72 h
Description: as §2

OVCAR4 = test: MTT cytotoxicity, ovarian cancer cell line OVCAR4; type: cell-based
Description: as §1

With [H]/N=C(/N)N/C(=N/[H])NCCc1ccccc1 [Phenformin, N-phenylethyl biguanide, reference compound] the IC50 (HeyA8; HEY A8, 72 hours) was 22 µM, the IC50 (BXPC-3; Homo sapiens, BXPC-3, 72 h) was 1100 µM and the “compensatory glycolysis (glycolytic ratio, lactate produced to glucose consumed)” value (PDAC cells [1]) was “increased compensatory glycolysis”. For the same compound, the IC50 (MiaPaca-2 PDAC cells; Homo sapiens, MIA PaCa-2) was 13600 µM, the logP ([2]; pH 7.4) was -0.72 ± 0.02 and the mitochondrial membrane potential (PDAC cells [3]) was “reduced mitochondrial membrane potential”. For the same compound, the “Ki67+ proliferating cells in tumors (IHC) compared to vehicle” value [4] was “markedly reduced Ki67+ proliferating cells”, the “change in body weight” value [4] was “No significant change in body weight” and the IC50 (Kras*; Mus musculus, Pancreatic cancer cell) was 750 µM. The IC50 (OVCAR4; Homo sapiens, OVCAR-4, 72 hours) was 2430 µM.

In the case of N=C(N)NC(=N)NCCc1ccccc1.[C-]#[O+].[C-]#[O+].[C-]#[O+].[Re+] [Re-Phen], the IC50 (HeyA8; 72 hours) is reported as 82 µM, the IC50 (BXPC-3; 72 h) is reported as 340 µM and the “compensatory glycolysis (glycolytic ratio, lactate produced to glucose consumed)” value (PDAC cells [1]) is reported as “increased compensatory glycolysis”. The IC50 (MiaPaca-2 PDAC cells) was 39 µM, the “fold higher cytotoxicity against MiaPaca-2 PDAC cells” value (MiaPaca-2 PDAC cells; Re-Phen versus phenformin, Table 1) was “about 35 fold” and the “log P” value ([2]; octanol and phosphate-buffered saline (PBS) at pH 7.4) was 1.07±0.08. The mitochondrial membrane potential (PDAC cells [3]) was “reduced mitochondrial membrane potential”, the “Ki67+ proliferating cells in tumors (IHC) compared to vehicle” value [4] was “markedly reduced Ki67+ proliferating cells” and the “change in body weight” value [4] was “No significant change in body weight”. For the same compound, the “tumor size compared to vehicle control” value [4] was “significantly reduced tumor size”, the IC50 (Kras*) was 230 µM and the IC50 (OVCAR4; 72 hours) was 390 µM.
